According to ChEMBL document CHEMBL1144699 (Bioorg Med Chem, 2008):
Calls of active or inactive are those of the source. The calls are words filed in the database; no cut-off is given here.

Columns and labels:
[1] = target: Mitogen-activated protein kinase 8 (Homo sapiens, UniProt P45983); assay: Inhibition of human JNK1 by radiometric assay
[2] = Metabolic stability in rat microsomes at 1 uM; assay type: ADME, Microsome; details: read-out: Stability
[3] = Metabolic stability in human microsomes at 1 uM; assay type: ADME, Microsome; details: read-out: Stability
[4] = target: Mitogen-activated protein kinase 8 (Rattus norvegicus, UniProt P49185); assay: Inhibition of JNK1 in rat H9c2 cells assessed as inhibition of anisomycin-induced cJun phosphorylation after 30 mins; assay type: cell-based
Sequence of Mitogen-activated protein kinase 8 (Rattus norvegicus, UniProt P49185) (P49185 whole entry): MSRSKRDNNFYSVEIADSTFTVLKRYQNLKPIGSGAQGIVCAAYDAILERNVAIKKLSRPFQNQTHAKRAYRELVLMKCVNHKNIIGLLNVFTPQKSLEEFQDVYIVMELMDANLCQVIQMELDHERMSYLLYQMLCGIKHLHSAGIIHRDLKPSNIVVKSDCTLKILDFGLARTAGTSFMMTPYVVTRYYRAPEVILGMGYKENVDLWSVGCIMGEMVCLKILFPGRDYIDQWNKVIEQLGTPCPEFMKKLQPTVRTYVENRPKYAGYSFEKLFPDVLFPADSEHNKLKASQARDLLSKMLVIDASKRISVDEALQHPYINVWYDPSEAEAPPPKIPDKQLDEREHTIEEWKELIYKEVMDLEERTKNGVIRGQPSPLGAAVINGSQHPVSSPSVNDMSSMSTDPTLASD

[5] = Lipophilicity, log D at pH 7.4; assay type: physicochemical; details: buffer
[6] = Tmax in Wistar rat at 3 mg/kg, po; assay type: ADME, organism-based; set-up: dose 3 mg/kg, route oral; details: in vivo
[7] = Volume of distribution at steady state in Wistar rat at 0.3 mg/kg, iv; assay type: ADME, organism-based; set-up: dose 0.3 mg/kg, route intravenous; details: in vivo, read-out: Vdss
[8] = AUC in Wistar rat at 3 mg/kg, po; assay type: ADME, organism-based; set-up: dose 3 mg/kg, route oral; details: plasma
[9] = Oral bioavailability in Wistar rat at 3 mg/kg; assay type: ADME, organism-based; details: in vivo
[10] = Cmax in Wistar rat at 3 mg/kg, po; assay type: ADME, organism-based; set-up: dose 3 mg/kg, route oral; details: in vivo
Rattus norvegicus = assay: Suppression of pressure-overload-induced cardiac hypertrophy in Wistar rat assessed as decrease in left ventricular weight to body weight ratio at 1 mg/kg, po once daily for 7 days; assay type: functional, organism-based; set-up: dose 1 mg/kg; details: Heart left ventricle
[11] = AUC in Wistar rat at 0.3 mg/kg, iv; assay type: ADME, organism-based; set-up: dose 0.3 mg/kg, route intravenous; details: plasma
[12] = Total clearance in Wistar rat at 0.3 mg/kg, iv; assay type: ADME, organism-based; set-up: dose 0.3 mg/kg, route intravenous; details: in vivo

Sequence of Mitogen-activated protein kinase 8 (Homo sapiens, UniProt P45983) (P45983 whole entry): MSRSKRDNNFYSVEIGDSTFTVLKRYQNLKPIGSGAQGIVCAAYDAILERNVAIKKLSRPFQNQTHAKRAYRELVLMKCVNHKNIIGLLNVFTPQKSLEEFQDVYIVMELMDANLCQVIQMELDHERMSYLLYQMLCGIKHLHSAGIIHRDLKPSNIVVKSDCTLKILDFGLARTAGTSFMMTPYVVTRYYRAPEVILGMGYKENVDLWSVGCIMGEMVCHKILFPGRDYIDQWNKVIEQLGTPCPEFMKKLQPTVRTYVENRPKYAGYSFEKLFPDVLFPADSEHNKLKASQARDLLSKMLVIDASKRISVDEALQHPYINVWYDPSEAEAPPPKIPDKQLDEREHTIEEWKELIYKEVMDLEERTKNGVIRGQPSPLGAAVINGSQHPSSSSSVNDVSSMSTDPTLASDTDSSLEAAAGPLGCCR

SMILES	IC50 [1] [nM]	microsomal CLint at 1 µM [2] [µL/min/mg]	microsomal CLint at 1 µM [3] [µL/min/mg]	IC50 [4] [nM]	logD [5]	also measured
CCC(=O)c1c(-c2ccccc2)c2cc(Cl)ccc2c(=O)n1Cc1cc(C(N)=O)n(CC)n1	11	110	35	670	4.08	
CCC(=O)c1c(-c2ccccc2)c2cc(Cl)ccc2c(=O)n1Cc1cc(C(=O)NC2CC2)n(CC(F)F)n1	10		14	1140	4.66	
CCC(=O)c1c(-c2ccccc2)c2cc(Cl)ccc2c(=O)n1Cc1ccc(C(=O)O)cc1				2300		
CCC(=O)c1c(-c2ccccc2)c2cc(Cl)ccc2c(=O)n1Cc1cc(S(C)(=O)=O)n(CC(F)F)n1	10	52	36	480	4.19	
CCC(=O)c1c(-c2ccccc2)c2cc(Cl)ccc2c(=O)n1Cc1cc(C(=O)NC)n[nH]1	33	74	37		3.5	
CCC(=O)c1c(-c2ccccc2)c2cc(Cl)ccc2c(=O)n1Cc1cc(S(C)(=O)=O)n(CC(N)=O)n1	8.2		14	1050	3.42	
CCNC(=O)n1ccc(Cn2c(C(=O)CC)c(-c3ccccc3)c3cc(Cl)ccc3c2=O)n1	8.6				4.51	
CCC(=O)c1c(-c2ccccc2)c2cc(Cl)ccc2c(=O)n1Cc1cn(C(=O)NC)c(C)n1	6.8					
CCC(=O)c1c(-c2ccccc2)c2cc(Cl)ccc2c(=O)n1Cc1cc(C(=O)NC2CC2)n(C)n1	6.4	89	44	720	4.35	Tmax [6]: 2 h; Vd [7]: 3.54 L/kg; AUC [8]: 340 ng·h/mL; bioavailability [9]: 15%; Cmax [10]: 47.1 ng/mL; Activity (Rattus norvegicus): Active; AUC [11]: 234 ng·h/mL; clearance [12]: 21.4 mL/min/kg
COC(=O)c1c(-c2ccccc2)c2cc(Br)ccc2c(=O)n1Cc1ccc(S(C)(=O)=O)cc1				2600		
CCC(=O)c1c(-c2ccccc2)c2cc(Cl)ccc2c(=O)n1Cc1cc(S(C)(=O)=O)n(CC(C)=O)n1	7.6	80	70	730	3.79	
CCNC(=O)n1cc(Cn2c(C(=O)CC)c(-c3ccccc3)c3cc(Cl)ccc3c2=O)cn1	43	60	43		4.45	
CCC(=O)c1c(-c2ccccc2)c2cc(Cl)ccc2c(=O)n1Cc1cc(C(N)=O)n(C)n1	7.3	81	15	2180	3.77	
CCC(=O)c1c(-c2ccccc2)c2cc(Cl)ccc2c(=O)n1Cc1cc(C(=O)N(C)C)n(C)n1	11	230	250		3.91	
CCC(=O)c1c(-c2ccccc2)c2cc(Cl)ccc2c(=O)n1Cc1ccc(S(C)(=O)=O)cc1	28					
CCC(=O)c1c(-c2ccccc2)c2cc(Cl)ccc2c(=O)n1Cc1cc(C(=O)NC)n(C)n1	9.4	177	79	260	3.97	
CCC(=O)c1c(-c2ccccc2)c2cc(Cl)ccc2c(=O)n1Cc1cc(S(C)(=O)=O)n(CCC(C)(C)O)n1	10	74	102	330	4.23	
